# US12616203B2, “Use of 3-isoxazolidinones compounds as selective herbicides” (FMC Corporation, priority 2014, dated 2026)
# What was measured:
# Sorghum = assay: Ex46 PRE sorghum injury 7, 14, 21, 28 DAT; settings: rate in the words
# Procedure: Treatments were applied to sorghum at the time of planting using Pennington soil. Each treatment was replicated four times. Soil was watered before and after application for herbicide activation. Plants were watered and fertilized routinely. […] Visual percent crop injury was recorded at 7, 14, 21, and 28 days after treatment using a scale of 0 (no injury) to 100 (complete plant death).
# weeds = assay: Ex18 PRE greenhouse; format: in vivo; settings: weed and rate in the words
# Text: Additional treatments included application of metazachlor (Butisan®, 43.1%) at 750 g ai/ha, napropamide (Devrinol DF®, 50%) at 1260 g ai/ha, and dimethachlor (Teridox®, 48%) at 1000 g ai/ha. […] Treatments were applied just after the seeding of annual bluegrass, cheat, wild oat, quackgrass, field violet, blackgrass, littleseed canarygrass, silky windgrass, yellow foxtail, and goosegrass. […] Flats were watered and fertilized routinely after treatment application. Each treatment was replicated three times.
# Italian ryegrass (IR) = assay: Ex2 PRE greenhouse, % control; format: in vivo, Lolium perenne. multiflorum; settings: 28 DAT, g ai/ha by row: r12-40 2,4-DC 31.25/62.5/125/250/375 (3 rows each) + metazachlor 250/500/750 (cycling)
# Procedure: (§1) Test compositions containing 2,4 DC Example 1B and metazachlor (Butisan® S, 43.1% active ingredient, BASF) and mixtures of 2-(2,4-dichlorophenyl)methyl-4,4-dimethyl-3-isoxazolidinone and metazachlor, were diluted with water to provide the appropriate test rate concentrations.
# (§2) The test crops were wheat and canola (Brassica napus), the test weeds were Italian ryegrass (IR) (Lolium perenne. multiflorum), annual bluegrass (AB) (Poa annua), common lambsquarters (CL) (Chenopodium album), littleseed canarygrass (LC) (Phalaris minor), common chickweed (CC) (Stellaria media), and corn poppy (CP) (Papaver rhoeas).
# For pre-emergence testing, four disposable fiber flats (6″ by 10″) for each rate of application of each herbicide solution were filled with top soil, to which seeds of each species were planted in furrows made by a template pressed on the top of the soil. The furrows were covered with soil after planting the seed and were watered well before application of the test compounds.
# Fiber flats designated for treatment were placed in a spray chamber having a static platform and a movable sprayer and height of the spray nozzle was 10.5 inches above the soil level. Once the sprayer was calibrated using water for spray volume of 30 gallons per acre, flats were sprayed with sprayer at a speed to receive a coverage equivalent of 30 gallons per acre. The application rates are those shown in Table 1 below for the individual herbicidal solutions and the herbicide compositions of the present invention. The pre-emergence flats were immediately placed in the greenhouse and watered lightly after treatment. Thereafter they were regularly watered and fertilized for the duration of the test.
# The control of weeds was evaluated in each experimental test at 21 days after treatment (DAT) for corn poppy and wheat and 28 DAT for all other species. The results, shown as an average of the replications were compared with results observed in untreated control flats in the same tests.
# (§3) Percent control was determined by a method similar to the 0 to 100 rating system disclosed in “Research Methods in Weed Science,” 2nd ed., B. Truelove, Ed.; Southern Weed Science Society; Auburn University, Auburn, Ala., 1977.
# common chickweed (CC) = assay: Ex2 PRE greenhouse, % control; format: in vivo, Stellaria media; settings: 28 DAT, g ai/ha by row: r12-40 2,4-DC 31.25/62.5/125/250/375 (3 rows each) + metazachlor 250/500/750 (cycling), r42-46 2,4-DC 31.25/62.5/125/250/375, r47-49 metazachlor 250/500/750
# Procedure: as §1, §2
# (§4) For pre-emergence testing, four disposable fiber flats (6″ by 10″) for each rate of application of each herbicide solution were filled with top soil, to which seeds of each species were planted in furrows made by a template pressed on the top of the soil. The furrows were covered with soil after planting the seed and were watered well before application of the test compounds. […]
# (§5) The control of weeds was evaluated in each experimental test at 21 days after treatment (DAT) for corn poppy and wheat and 28 DAT for all other species. […]
# as §3
# [1] = test system: littleseed canarygrass (LC); assay: Ex2 PRE greenhouse, % control; format: in vivo, Phalaris minor; settings: 28 DAT, g ai/ha by row: r12-40 2,4-DC 31.25/62.5/125/250/375 (3 rows each) + metazachlor 250/500/750 (cycling)
# Text: Fiber flats designated for treatment were placed in a spray chamber having a static platform and a movable sprayer and height of the spray nozzle was 10.5 inches above the soil level. Once the sprayer was calibrated using water for spray volume of 30 gallons per acre, flats were sprayed with sprayer at a speed to receive a coverage equivalent of 30 gallons per acre. […] The pre-emergence flats were immediately placed in the greenhouse and watered lightly after treatment. Thereafter they were regularly watered and fertilized for the duration of the test.
# [2] = test system: common lambsquarters (CL); assay: Ex2 PRE greenhouse, % control; format: in vivo, Chenopodium album; settings: 28 DAT, g ai/ha by row: r12-40 2,4-DC 31.25/62.5/125/250/375 (3 rows each) + metazachlor 250/500/750 (cycling), r42-46 2,4-DC 31.25/62.5/125/250/375, r47-49 metazachlor 250/500/750
# Procedure: as §1, §2, §4, §5, §3
# weeds; Wheat and canola = assay: Ex27 PRE greenhouse; format: in vivo; settings: weed and rate in the words
# Text: The weeds tested in this study were Italian ryegrass (Lolium perenne. multiflorum, LOLMU), wild mustard (Sinapis arvensis, SINAR), annual bluegrass (Poa annua POAAN), wild oat (Avena fatua, AVEFA), blackgrass (Alopecurus myosuroides, ALOMY), common lambsquarters (Chenopodium album […] (Phalaris minor, PHAMI), common chickweed (Stellaria media, STEME), corn poppy (Papaver rhoeas PAPRH). The crops tested were Wheat and canola. […] Treatments were applied before the emergence of Italian ryegrass, wild oat, blackgrass, littleseed canarygrass, common chickweed, common lambsquarters, corn poppy, wild mustard, annual bluegrass, canola, and wheat. […] Flats were watered and fertilized routinely after treatment application. […] Wheat and corn poppy were rated at 14 and 21 DAT only.
# annual bluegrass (AB) = assay: Ex2 PRE greenhouse, % control; format: in vivo, Poa annua; settings: 28 DAT, g ai/ha by row: r12-40 2,4-DC 31.25/62.5/125/250/375 (3 rows each) + metazachlor 250/500/750 (cycling), r42-46 2,4-DC 31.25/62.5/125/250/375, r47-49 metazachlor 250/500/750
# Procedure: as §1, §2, §4, §5, §3
# corn poppy (CP) = assay: Ex2 PRE greenhouse, % control; format: in vivo, Papaver rhoeas; settings: 21 DAT, g ai/ha by row: r12-40 2,4-DC 31.25/62.5/125/250/375 (3 rows each) + metazachlor 250/500/750 (cycling), r42-46 2,4-DC 31.25/62.5/125/250/375, r47-49 metazachlor 250/500/750
# Procedure: as §1, §2, §4, §5, §3
# [3] = test system: weeds; sweet corn, yellow corn, and sorghum; assay: Ex31 PRE greenhouse; format: in vivo; settings: weed and rate in the words
# Text: Flats were watered and fertilized routinely after treatment application.
# barnyardgrass (BG) = assay: Ex5 PRE greenhouse, % control; format: in vivo, Echinochloa crus-galli; settings: 28 DAT, g ai/ha by row: r10-26 2,4-DC 50/100/200 (3 rows each) + mesotrione 25/50/100 (cycling)
# Procedure: (§6) Test compositions containing 2,4-DC Example 1C and mesotrione (Callisto® Herbicide, 40% active ingredient, Syngenta) and mixtures of 2-(2,4-dichlorophenyl)methyl-4,4-dimethyl-3-isoxazolidinone and mesotrione, were diluted with water to provide the appropriate test rate concentration.
# (§7) The test weeds were barnyardgrass (BG) (Echinochloa crus-galli), jimsonweed (PA) (Datura stramonium), velvetleaf (VL) (Abutilon theophrasti), common cockelbur (CC) (Xanthium strumarium) and hairy beggarticks (HB) (Bidens pilosa). Crops included in the evaluation were field corn and sorghum.
# (§8) For pre-emergence testing, four disposable fiber flats (6″ by 10″) for each rate of application of each herbicide solution were filled with top soil, to which seeds of each species were planted in furrows made by a template pressed on the top of the soil. The furrows with seeds were covered with soil and were watered well before application of the test compounds. Flats designated for treatment were placed in a spray chamber having a static platform and a movable sprayer and height of the spray nozzle was 10.5 inches above the soil level. Once the sprayer was calibrated using water for spray volume of 30 gallons per acre, flats were sprayed with sprayer at a speed to receive a coverage equivalent of 30 gallons per acre.
# (§9) The application rates are those shown in Table 4 below for the individual herbicidal solutions and the herbicide compositions of the present invention. The pre-emergence flats were immediately placed in the greenhouse and watered lightly after treatment. Thereafter they were regularly watered and fertilized for the duration of the test. The control of weeds and injury to crops was evaluated in each experimental test at 28 days after treatment (DAT). […] Percent control was determined by a method similar to the 0 to 100 rating system disclosed in “Research Methods in Weed Science,” 2nd ed., B. Truelove, Ed.; Southern Weed Science Society; Auburn University, Auburn, Ala., 1977.
# weeds; Sugarcane (CTC20) = assay: Ex23 PRE greenhouse; settings: 28 DAT, weed and rate in the words
# Procedure: (Ipomoea spp). The tested crop in this study was Sugarcane (CTC20).
# Sugarcane was direct seeded into 6″ plastic pots using 3-4″ sugarcane setts, oriented bud up, with bud leaf shield removed. 2,4 DC and sulfentrazone were applied alone or combined as tank-mix at each rate mentioned below. […] Treatments were replicated 3 times. […] Thereafter flats were watered and fertilized routinely. […] Visual percent sugarcane injury was recorded at 21 and 28 DAT, using a scale of 0 (no injury, observed as bleaching, stunting or necrosis) to 100 (complete plant death).
# [4] = test system: sweet corn, yellow corn, and sorghum; settings: PRE; crop and rate in the words
# Text: Treatments were also applied ot sweet corn, yellow corn, and sorghum.
# Treatments were applied before the emergence of Jimsonweed, velvetleaf, hairy beggarticks, common cocklebur, barnyardgrass, sweet corn, yellow corn, and sorghum. Plant species were planted in fiber flats (6″×10″) containing Pennington soil and flats were watered well before application and watered lightly after application. Flats were watered and fertilized routinely after treatment application.
# jimsonweed = assay: Ex5 PRE greenhouse, % control; format: in vivo, Datura stramonium; settings: 28 DAT, g ai/ha by row: r10-26 2,4-DC 50/100/200 (3 rows each) + mesotrione 25/50/100 (cycling)
# Procedure: as §6, §7, §8, §9
# velvetleaf (VL) = assay: Ex5 PRE greenhouse, % control; format: in vivo, Abutilon theophrasti; settings: 28 DAT, g ai/ha by row: r10-26 2,4-DC 50/100/200 (3 rows each) + mesotrione 25/50/100 (cycling)
# Procedure: as §6, §7, §8, §9
# [5] = test system: weeds; Sugarcane (var. CTC 20); assay: Ex17 PRE greenhouse; format: in vivo; settings: weed and rate in the words
# Procedure: In this example a study was conducted to determine weed efficacy and sugarcane injury when 2,4 DC or isoxaflutole are applied either alone or tank-mix as preemergence against the weeds: Ivyleaf morningglory (Ipomoea hederacea, IPOHE), hairy beggartickss (Bidens pilosa, BIDPI), yellow nutsedge (Cyperus esculentus, CYPES), large crabgrass (Digitaria sanguinalis, DIGSA), and redroot pigweed (Amaranthus retroflexus, AMARE). The crop tested in this study was Sugarcane (var. CTC 20).
# To determine weed efficacy and sugarcane selectivity, 2,4 DC (SC 36%) and isoxaflutole (Balance Flexx®, 20%) were applied PRE either alone or as tank-mix partners at rates mentioned below. 2,4 DC was applied at 500, 750, and 1000 g ai/ha while isoxaflutole was applied at 80, 100, and 120 g ai/ha. […] Treatments were applied PRE to sugarcane (var. CTC 20), ivyleaf morningglory, hairy beggarticks, yellow nutsedge, large crabgrass, and redroot pigweed. Weed species were planted in fiber flats (6″×10″) containing Pennington soil. Soil was watered before application and watered lightly after application. Flats were watered and fertilized routinely after treatment application.
# [6] = r42-46 2,4-DC 31.25/62.5/125/250/375, r47-49 metazachlor 250/500/750, 250 g ai/ha
# [7] = r42-46 2,4-DC 31.25/62.5/125/250/375, r47-49 metazachlor 250/500/750, 500 g ai/ha
# [8] = r28-30 2,4-DC 50/100/200, r31-33 mesotrione 25/50/100, 25 g ai/ha
# [9] = r28-30 2,4-DC 50/100/200, r31-33 mesotrione 25/50/100, 50 g ai/ha
# [10] = r28-30 2,4-DC 50/100/200, r31-33 mesotrione 25/50/100, 100 g ai/ha
smiles,measurement,setting,value
"CC1(C)CON(Cc2cc(Cl)ccc2Cl)C1=O [2,5-DC, 2-(2,5-dichlorophenyl)methyl-4,4-dimethyl-3-isoxazolidinone]",sorghum safety in words,Sorghum,safe on sorghum at rates ranging from 31 to 125 g ai/ha irrespective of rating timings
"Cc1cccc(C)c1N(Cn1cccn1)C(=O)CCl [Metazachlor, metazachlor]",weed control in words,weeds,controlled all weeds
same,% Control IR,Italian ryegrass (IR); [6],96%
same,% Control IR,Italian ryegrass (IR); [7],98%
same,% Control IR,"Italian ryegrass (IR); r42-46 2,4-DC 31.25/62.5/125/250/375, r47-49 metazachlor 250/500/750, 750 g ai/ha",99%
same,% Control CC,common chickweed (CC),100%
same,% Control LC,[1]; [6],99%
same,% Control LC,[1]; [7],100%
same,% Control CL,[2],100%
same,weed control in words,weeds; Wheat and canola,alone controlled blackgrass at 750 g
same,% Control AB,annual bluegrass (AB),100%
same,% Control CP,corn poppy (CP),100%
CS(=O)(=O)c1ccc(C(=O)C2C(=O)CCCC2=O)c([N+](=O)[O-])c1 [mesotrione],weed control in words,[3],alone gave control of velvetleaf and Jimsonweed at medium or highest rate while it controlled cocklebur and hairy beggarstick at the highest rate only
same,% Control BG,barnyardgrass (BG); [8],48%
same,% Control BG,barnyardgrass (BG); [9],61%
same,% Control BG,barnyardgrass (BG); [10],73%
same,weed control in words,weeds; Sugarcane (CTC20),at 105 g controlled all weeds except morningglory
same,crop safety in words,[4],alone was safe on sweet corn and yellow corn at all three rates; safe on sorghum at 25 and 50 g
same,% Control JW,jimsonweed; [8],68%
same,% Control JW,jimsonweed; [9],90%
same,% Control JW,jimsonweed; [10],93%
same,% Control VL,velvetleaf (VL); [8],73%
same,% Control VL,velvetleaf (VL); [9],87%
same,% Control VL,velvetleaf (VL); [10],100%
same,weed control in words,[5],at 105 g controlled all weeds except ivyleaf morningglory
